Results as given in US4071627A, “2-Oximino-tetrahydro-1,4-thiazin-5-one compounds and pesticidal carbamate derivatives” (priority 1976, dated 1978).

Assays:
[1] = system: house flies (Musca domestica, L.); assay: Fly Bait Test; assay type: in vivo; design: key: A: excellent control; B: partial control; C: no control; details: 500 ppm, 24 hours, adults
Method: (§1) Suspensions of the test compounds were prepared by dissolving one gram of compound in 50 milliliters of acetone in which had been dissolved 0.1 gram (10 percent of the weight of compound) of an alkylphenoxy polyethoxyethanol surfactant, as an emulsifying or dispersing agent. The resulting solution was mixed into 150 milliliters of water to give roughly 200 milliliters of a suspension containing the compound in finely divided form. The thus-prepared stock suspension contained 0.5 percent by weight of test compound. The test concentrations in parts per million by weight employed in the tests described hereinbelow were obtained by appropriate dilutions of the stock suspension with water. The test procedures were as follows:
Four to six day old adult house flies (Musca domestica, L.), reared according to the specifications of the Chemical Specialities Manufacturing Association (Blue Book, McNair-Dorland Co., N.Y. 1954; pages 243-244, 261) under controlled conditions of 80°±5° F. and 50±5 percent relative humidity, were the test insects. The flies were immobilized by anesthetizing with carbon dioxide and 25 immobilized individuals, males and females, were transferred to a cage consisting of a standard food strainer about 5 inches in diameter which was inverted over a wrapping-paper-covered surface. The test compounds were formulated by diluting the stock suspension with a 10 percent (by weight) sugar solution to give a suspension containing 500 parts of test compound per million parts of final formulation, by weight. Ten milliliters of the test formulation were added to a souffle cup containing a 1-inch square of an absorbent cotton pad. This bait cup was introduced and centered on the blotting paper under the food strainer prior to admitting the anesthetized flies. The caged flies were allowed to feed on the bait for 24 hours, at a temperature of 80°±5° F. and the relative humidity of 50±5 percent.
(§2) In these tests the pesticidal activity of the compounds against aphid, mite, Southern Armyworm, Mexican Bean Beetle, and house fly was rated as follows: […]

[2] = system: bean aphid (Aphis fabae Scop.); assay: Bean Aphid Foliage Spray Test; assay type: in vivo; design: key: A: excellent control; B: partial control; C: no control; details: 500 ppm, 24 hours, adults and nymphs
Method: as §1
Adults and nymphal stages of the bean aphid (Aphis fabae Scop.) reared on potted dwarf nasturtium plants at 65°-70° F. and 50-70 percent relative humidity, constituted the test insects. For testing purposes, the number of aphids per pot was standardized to 100-150 by trimming plants containing excess aphids.
The test compounds were formulated by diluting the stock suspension with water to give a suspension containing 500 parts of test compound per million parts of final formulation.
The potted plants (one pot per compound tested) infested with 100-150 aphids, were placed on a revolving turntable and sprayed with 100-110 milliliters of test compound formulated by use of a DeVilbiss spray gun set at 40 psig. air pressure. This application, which lasted 25 seconds, was sufficient to wet the plants to run-off. As a control, 100-110 milliliters of a water-acetone-emulsifier solution containing no test compound were also sprayed on infested plants. After spraying, the pots were placed on their sides on a sheet of white standard mimeograph paper which had been previously ruled to facilitate counting. Temperature and humidity in the test room during the 24 hour holding period were 65°-70° F. and 50-70 percent, respectively. Aphids which fell onto the paper and were unable to remain standing after being uprighted were considered dead. Aphids remaining on the plants were observed closely for movement and those which were unable to move the length of the body upon stimulation by prodding were considered dead. Percent mortality was recorded for various concentration levels.
as §2

[3] = system: Mexican bean beetle (Epilachna varivestis, Muls.); assay: Mexican Bean Beetle Leaf Spray Test; assay type: in vivo; design: key: A: excellent control; B: partial control; C: no control; details: 500 ppm, three days, fourth instar larvae
Method: as §1
Fourth instar larvae of the Mexican bean beetle (Epilachna varivestis, Muls.), reared on Tendergreen bean plants at a temperature of 80°±5° F. and 50±5 percent relative humidity, were the test insects.
The test compounds were formulated by diluting the stock suspension with water to give a suspension containing 500 parts of test compound per million parts of final formation. Potted Tendergreen bean plants of standard height and age were placed on a revolving turntable and sprayed with 100-110 milliliters of test compound formulated by use of a DeVilbiss spray gun set at 10 psig air pressure. This application, which lasted 25 seconds, was sufficient to wet plants to run-off. As a control, 100-110 milliliters of a water-acetone-emulsifier solution containing no test compound were also sprayed on infested plants. When dry, the paired leaves were separated and each was placed in a 9 centimeter Petri dish lined with moistened filter paper. Five randomly selected larvae were introduced into each dish, and the dishes were closed. The closed dishes were labeled and held at a temperature of 80°±5° F. for three days. Although the larvae could easily consume the leaf within 24 to 48 hours, no more food was added. Larvae which were unable to move the length of the body, even upon stimulation, were considered dead.
as §2

[4] = system: southern armyworm (Prodenia eridania, (Cram.)); assay: Southern Armyworm Leaf Spray Test; assay type: in vivo; design: key: A: excellent control; B: partial control; C: no control; details: 500 ppm, three days, larvae
Method: as §1
Larvae of the southern armyworm (Prodenia eridania, (Cram.)), reared on Tendergreen bean plants at a temperature of 80°±5° F. and a relative humidity of 50±5 percent, constituted the test insects.
The test compounds were formulated by diluting the stock suspension with water to give a suspension containing 500 parts of test compound per million parts of final formulation. Potted Tendergreen bean plants of standard height and age were placed on a revolving turntable and sprayed with 100-110 milliliters of test compound formulation by use of a DeVilbiss spray gun set at 10 psig air pressure. This application, which lasted 25 seconds, was sufficient to wet plants to run-off. As a control, 100-110 milliliters of a water-acetone-emulsifier solution containing no test compound were also sprayed on infested plants. When dry, the paired leaves were separated and each one was placed in a 9 centimeter Petri dish lined with moistened filter paper. Five randomly selected larvae were introduced into each dish and the dishes were closed. The closed dishes were labeled and held at 80°-85° F. for three days. Although the larvae cound easily consume the whole leaf within 24 hours, no more food was added. Larvae which were unable to move the length of the body, even upon stimulation by prodding, were considered dead. Percent mortality was […] for various concentration levels.
as §2

[5] = system: two-spotted mite (Tetranychus urticae Koch); assay: Mite Foliage Spray Test; assay type: in vivo; design: key: A: excellent control; B: partial control; C: no control; details: 500 ppm, six days, adults and nymphs
Method: as §1
Adults and nymphal stages of the two-spotted mite (Tetranychus urticae Koch), reared on Tengergreen bean plants at 80±5 percent relative humidity, were the test organisms. Infested leaves from a stock culture were placed on the primary leaves of two bean plants 6 to 8 inches in height, growing in a 21/2 inch clay pot. 150-200 Mites, a sufficient number for testing, transferred from the excised leaves to the fresh plants in a period of 24 hours. Following the 24 hour transfer period, the excised leaves were removed from the infested plants. The test compounds were formulated by diluting the stock suspension with water to give a suspension containing 500 parts of test compound per million parts of final formulation. The potted plants (one pot per compound) were placed on a revolving turntable and sprayed with 100-110 milliliters of test compound formulation by use of a DeVilbiss spray gun set at 40 psig. air pressure. This application, which lasted 25 seconds, was sufficient to wet the plants to run-off. As a control, 100-110 milliliters of a water solution containing acetone and emulsifier in the same concentrations as the test compound formulation, but containing no test compound, were also sprayed on infested plants. The sprayed plants were held at 80±5 percent relative humidity for six days, after which a mortality count of motile forms was made. Microscopic examination for motile forms was made on the leaves of the test plants. Any individual which was capable of locomotion upon prodding was considering living.
as §2

[6] = in vivo; details: rat, po
Method: Certain of these compositions were also evaluated to determine their peroral toxicity to mammals. The animal selected for this experiment was the rat.

SMILES	Biological Activity, House Fly [1]	Biological Activity, Aphid [2]	Biological Activity, Mexican Bean Beetle [3]	Biological Activity, Southern Armyworm [4]	Biological Activity, Mite [5]	LD50 [6]
CNC(=O)ON=C1SC(C)C(=O)NC1(C)C (stereo not drawn) [2-[O-(Methylcarbamoyl)oximino]-3,3,6-trimethyltetrahydro-1,4-thiazin-5-one]	A	A	A	B	A	0.884 mg/kg
CNC(=O)ON=C1SCC(=O)NC1C (stereo not drawn) [2-[O-(Methylcarbamoyl)oximino]-3-methyltetrahydro-1,4-thiazin-5-one]	A	B	A	A	A	5.66 mg/kg
CC1C(=NOC(=O)N(C)SC(Cl)(Cl)Cl)SCC(=O)N1C (stereo not drawn) [2-[O-(N-Trichloromethanesulfenyl-N-methylcarbamoyl)oximino]-3,4-dimethyltetrahydro-1,4-thiazin-5-one]	A	B	A	B	A	3.54 mg/kg
